Here are results for one compound from US20240252472A1, “COMBINATIONS FOR TREATING CANCER” (Purdue Pharma L.P., priority 2023, published 2024).

Molecules are shown by their SMILES.

One assay has as its system IRF-1. The experiment in a line: Western blot of transcription factors in MM cell lines. In kind it is cell-based, human. The following applies: MOLP-8 cell line; 1 and 2.5 μM, 48 h. As for the experimental part: (§1) Western Blot Analysis Cells were collected and centrifuged at 1200 rpm for 5 minutes at 4° C. Cells were washed with PBS and lysed in ice-cold lysis buffer [140 mmol/L NaCl, 10 mmol/L EDTA, 10% glycerol, 1% NP40, 20 mmol/L Tris (pH 7), 1 μMol/L pepstatin, 1 μg/mL aprotinin, 1 μg/mL leupeptin, 1 mmol/L sodium orthovanadate]. Samples were centrifuged at 10,000×g at 4° C. for 10 minutes, and supernatants were transferred to new tubes and western blots were performed following standard procedures. CD38 and anti-α-tubulin primary antibodies used in Western blot analyses were obtained from Cell Signaling (Boston, MA, USA). The horseradish peroxidase-conjugated secondary antibodies were from GE Healthcare (Chicago, IL, USA).
(§2) To determine the mechanism by which EDO-S101 increases CD38 expression, the expression of the transcription factors NF-κB, AP-1 and IRF-1 which are known to be involved in regulating the expression of CD38 was evaluated. Treatment with EDO-S101 (1 and 2.5 μM) for 48 h increased the expression of c-Jun and c-Fos (subunits of the transcription factor AP-1) in two (MM1.S and RPMI-8226) of the four myeloma cell lines tested (FIG. 5). Additionally, EDO-S101 increased IRF-1 expression in the MOLP-8 cell line (FIG. 5).

The subject of assay [1] is c-Jun and c-Fos (subunits of the transcription factor AP-1). The description is as above. The following applies: MM1.S and RPMI-8226 (two of four lines); 1 and 2.5 μM, 48 h. It counts as cell-based, human. As to the method: as §1, §2
Another assay concerns MICA. Put plainly: Surface expression of NK cell activating ligands by flow cytometry. To be noted: 48 hours, DMSO = 100. It counts as cell-based, human. As for the experimental part: (§3) For surface staining, cells were incubated with the appropriate antibodies and 7AAD (Immunostep) for 15 min in the dark. Data were acquired using a FACSCalibur cytometer (BD Biosciences) and analyzed using Infinicyt™ software (Cytognos). Specifically, the expression of CD38 or ligands for NK cell activating receptors (MICA, MICB, ULBP1-3, PVR and CD112) in MM cell lines was determined on the viable cell population (7AAD-). In primary myeloma cells, the expression of CD38 was analyzed over the viable myeloma population using the panel CD138-FITC/CD56-PE/7AAD/CD38-APC, whereas MICA/B-AF488/CD56-PE/7AAD/CD38-APC panel was used to determine MICA/B expression. Normalized median fluorescence intensity (MFI) was calculated by dividing median fluorescence obtained with the specific antibody by median fluorescence of the corresponding isotype control. MFI for each treatment was expressed as a percentage relative to the control (100%, cells cultured in media with DMSO).
(§4) MM cells (JJN3, MM1.S, RPMI-8226, MOLP-8) were treated with EDO-S101 (1 and 2.5 μm) for 48 hours in accordance with the methods outlined above. After incubation, expression of several ligands for NK cell activating receptors: MICA, MICB, ULBP1, ULPB2, ULPB3, CD155 (PVR) and CD112 (Nectin-2) were measured using flow cytometry. Flow cytometry was then performed in accordance with the methods outlined above to calculate.

The subject of another assay is ULBP1. The assay is described as above. In kind it is cell-based, human. The following applies: MM cell lines tested; not basally expressed; data not shown. As for the experimental part: as §3, §4
For assay [2], the system named is CD38 histone H3 acetylation. Put plainly: ChIP-qPCR of CD38 histone H3 acetylation. It counts as cell-based, human. To be noted: MM.1S (similar in RPMI-8226); 2.5 μM, 48 hours; vs DMSO. As to the method: Chromatin Immunoprecipitation RPMI-8226 and MM.1S cell lines were treated with DMSO or tinostamustine (2.5 μM) for 48 hours. Then, the cells were fixed with Pierce™ fresh methanol-free formaldehyde (ThermoFisher) for 15 minutes and prepared for sonication with the truChIP Chromatin Shearing Kit (Covaris, Woburn, MA, USA), following the manufacturer's instructions and as previously described (Garcia-Gomez et al., Nat Commun 12: 421, 2021).
For ChIP-qPCR, samples were diluted 1/10, and 4 μL and specific primers (Supplementary Table 1) were used for each reaction. RT-qPCR was performed in technical triplicates for each biological replicate, using LightCycler® 480 SYBR Green Mix (Roche). The relative amount of immunoprecipitated DNA was compared to the input DNA for each condition.

For assay [3], the system named is CD38 expressed on MM cells. Put plainly: Daratumumab binding to myeloma cells pre-treated with EDO-S101, flow cytometry. In kind it is cell-based, human. The following applies: JJN3, RPMI-8226, MOLP-8; EDO-S101 1 or 2.5 μM 48 h, then daratumumab 10 μg/ml. As for the experimental part:
Evaluation of daratumumab binding to myeloma cells To evaluate daratumumab binding to myeloma cells, MM cell lines were first pre-treated with tinostamustine (1 or 2.5 μM) or DMSO for 48 hours. Then cells were washed to remove tinostamustine or DMSO from the culture medium, and daratumumab (10 μg/ml) was added and incubated for 30 minutes. After that time, cells were washed with PBS twice and incubated during 30 additional minutes with anti-human-IgG1-AlexaFluor488 (Invitrogen, Carlsbad, CA, USA). Cells were acquired in a FACSCalibur cytometer and normalized MFI was calculated as described above.
Flow cytometry was used to analyse the binding of daratumumab to MM cells pre-treated with EDO-S101. The anti-human-IgG1-Alexa Fluor 488 (Invitrogen, Carlsbad, CA, USA) antibody recognizes and binds daratumumab's Fc region and, therefore, it can be detected using flow cytometry.
MM cells (JJN3, MM1.S, RPMI-8226, MOLP-8) were treated with EDO-S101 (1 μM or 2.5 μM) in accordance with the general methods outlined above. Following treatment, the cells were washed with PBS, and incubated at 37° C. for 30 minutes with 10 μg/ml daratumumab. Cells were then washed with PBS, anti-human-IgG1-Alexa Fluor 488 was added, and the cells were incubated at 37° C. for a further 30 minutes. […]

The subject of a further assay is JJN3. The experiment in a line: Percentage of viable MM cells after treatment. In kind it is cell-based. To be noted: Homo sapiens, JJN-3, read-out: percentage of viable cells. As for the experimental part:
(§5) Cell Treatment with EDO-S101 MM cells (MM1S, JJN3, KMS12-BM, RPMI-8226, U266, MOLP-8) were either treated with a control (0 μM EDO-S101, DMSO vehicle) or treated with EDO-S101 (0.1, 0.5, 1 or 2.5 μM in DMSO) for 48 hours, unless indicated otherwise.

For another assay, the system named is MOLP-8. Put plainly: Percentage of viable MM cells after treatment. It counts as cell-based. To be noted: Homo sapiens, MOLP-8, read-out: percentage of viable cells. As for the experimental part: as §5

For `Cn1c(CCCCCCC(=O)NO)nc2cc(N(CCCl)CCCl)ccc21` [EDO-S101, 7-(5-(bis(2-chloroethyl)amino)-1-methyl-1H-benzo[d]imidazol-2-yl)-N-hydroxyheptanamide], the IRF-1 expression result in the assay on IRF-1 was “increased”. The “expression of c-Jun and c-Fos” value in assay [1] is listed as “increased”. The “Normalized MFI MICA” value in the assay with MICA (JJN3, EDO-S101 1 μM) was 162.9 ± 11.8%; with MICA (JJN3, EDO-S101 2.5 μM) it was 168.8 ± 10.3%; in the assay on MICA (MM1.S, EDO-S101 1 μM), 131.9 ± 37.6%; in the assay with MICA (MM1.S, EDO-S101 2.5 μM) it was 128 ± 38.2%; in the assay with MICA (MOLP-8, EDO-S101 1 μM), 112.9 ± 5.7%; with MICA (MOLP-8, EDO-S101 2.5 μM), 131.7 ± 13.4%. For the same compound, the “Normalized MFI MICA” value is 121.3 ± 5.9% in the assay with MICA (RPMI-8226, EDO-S101 1 μM) and 153.6 ± 16.1% in the assay with MICA (RPMI-8226, EDO-S101 2.5 μM). The ULBP1 expression entry in the assay with ULBP1 is listed as “did not change”. The “CD38 histone H3 acetylation levels” value in assay [2] was “elevated”. The “binding of daratumumab to MM cells (normalized MFI)” value in assay [3] was “increases”. The viability at 2.5 µM with JJN3 is 55.5%; with MOLP-8, 25.6%.
